Values of other authors in US20190022221A1 (priority 2015, published 2019).

Tests used:
[1] = in vivo
[2] = test system: Zaire Ebola virus (ZEBOV)
[3] = test system: Venezuelan equine encephalitis virus (VEEV)
Acinetobacter baumannii = conditions: 1.1-millimeter-thick soft agar layer, light 100 milliWatts per square centimeter

Oc1cccc(-c2c3nc(c(-c4cccc(O)c4)c4ccc([nH]4)c(-c4cccc(O)c4)c4nc(c(-c5cccc(O)c5)c5ccc2[nH]5)CC4)C=C3)c1 [Foscan, Tetra (m-hydroxyphenyl) chlorin]
duration of skin photosensitivity [1]: approximately 2 weeks

[N-]=[N+]=Nc1cccc2c(I)cccc12 [INA, 1,5-iodonaphthyl azide]
infectivity of ZEBOV after INA treatment [2]: completely noninfectious | inactivation of virulent strain of VEEV [3]: efficiently inactivate

CC(=O)[O-].CC(=O)[O-].CCc1c(CC)c2cc3nc(cnc4cc(OCCOCCOCCOC)c(OCCOCCOCCOC)cc4ncc4nc(cc1[n-]2)C(CCCO)=C4C)C(C)=C3CCCO.O.[Lu+3] [Lutetium texaphryin, Motexafin lutetium]
duration of skin photosensitivity [1]: 24 to 48 h

[Mn(PaPy3)(NO)](ClO4)
clearance of bacteria from treated areas of the plates (Acinetobacter baumannii): effectively cleared the bacteria
